Experimental findings from ChEMBL document CHEMBL1143678, “Self-assembling cannabinomimetics: supramolecular structures of N-alkyl amides” (J Nat Prod, 2007) are described below.

For the experiment, the target named is Cannabinoid receptor 2 (Homo sapiens, UniProt P34972). The experiment is described as follows: Displacement of [3H]CP-55940 from CB2 receptor expressed in HEK cells. It is filed as cell-based, HEK293. For orientation: Loss of bound radioactivity is the signal in a displacement assay; it reports binding, not function.
Cannabinoid receptor 2, sequence (P34972 whole entry): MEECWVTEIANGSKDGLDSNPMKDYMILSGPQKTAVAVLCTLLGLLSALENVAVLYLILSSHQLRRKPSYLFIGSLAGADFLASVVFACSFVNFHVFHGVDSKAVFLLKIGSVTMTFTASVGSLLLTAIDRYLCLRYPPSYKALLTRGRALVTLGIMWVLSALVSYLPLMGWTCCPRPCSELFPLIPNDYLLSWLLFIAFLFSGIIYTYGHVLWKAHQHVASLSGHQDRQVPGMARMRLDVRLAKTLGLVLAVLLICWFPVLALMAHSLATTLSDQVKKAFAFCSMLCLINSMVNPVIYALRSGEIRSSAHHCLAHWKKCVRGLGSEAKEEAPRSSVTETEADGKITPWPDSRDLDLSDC

The Ki is a measure of affinity in units of concentration, obtained from inhibition or displacement. Read a high Ki as weaker binding. As to `CCCCCCC/C=C/C=C/C(=O)NCC(C)C`, the Ki stood at 52 nM.
